Values after ≈ are worked out from the molar mass of the structure shown. Like-named read-outs stand apart in the source and are kept apart here. Numbered stars: 1 amine (or outer) side, 2 acyl side, 3 side chain; on linkers, the order of the positions; unused ones are H or OH. Bridge positions count the residues as written; N and C are the ends. Side chains are listed from the residue outwards. Peptide text beside a SMILES is read from it. * marks the point of attachment. C20 diacid = O=C(O)CCCCCCCCCCCCCCCCCCC(=O)*; γGlu = O=C(O)[C@H](CCC(=O)[*:2])N[*:1]; AEEA = NCCOCCOCC(=O)O
Columns and labels:
[1] = target: T1, rat amylin receptor (rat calcitonin receptor + rat RAMP 3) (Rattus norvegicus, UniProt P32214+Q9JJ73); test: ASSAY (VI) binding to the rat amylin receptor; conditions: for IC50: binding to rat amylin receptor, read-out: rAmylin-R bind IC50
T1 construct: expressed in transfected cells; host or cells: BHK tk'ts 13 (transient, FuGENE 6), membranes
T1 sequence (P32214 25-479 isoform P32214-2 limits assumed): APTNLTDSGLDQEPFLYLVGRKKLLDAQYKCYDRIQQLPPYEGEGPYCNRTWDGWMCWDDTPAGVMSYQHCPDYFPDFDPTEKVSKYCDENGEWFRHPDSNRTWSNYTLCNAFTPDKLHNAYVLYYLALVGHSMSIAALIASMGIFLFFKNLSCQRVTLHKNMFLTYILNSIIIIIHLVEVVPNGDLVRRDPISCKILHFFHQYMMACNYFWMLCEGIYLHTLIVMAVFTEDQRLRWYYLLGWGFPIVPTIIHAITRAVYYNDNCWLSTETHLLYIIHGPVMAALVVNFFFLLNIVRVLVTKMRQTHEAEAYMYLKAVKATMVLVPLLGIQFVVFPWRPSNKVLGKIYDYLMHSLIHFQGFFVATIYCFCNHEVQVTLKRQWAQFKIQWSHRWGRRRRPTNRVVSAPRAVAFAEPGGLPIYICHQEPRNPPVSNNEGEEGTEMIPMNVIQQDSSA
T1 sequence (Q9JJ73 23-147 partner): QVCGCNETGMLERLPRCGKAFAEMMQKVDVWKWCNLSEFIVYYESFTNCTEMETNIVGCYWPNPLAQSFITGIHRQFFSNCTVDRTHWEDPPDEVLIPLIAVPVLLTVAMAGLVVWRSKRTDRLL
In short: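 Membranes for this rat amylin receptor binding assay came from BHK tk′ts 13 cells. The cells were transiently transfected with rat calcitonin receptor using the FuGENE® 6 reagent from Roche, as the manufacturer recommends. The cells were collected approximately 48 hours after transfection, and membranes were then prepared.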

[2] = ASSAY (IV) determination of solubility; format: physicochemical
In short: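 Samples of polypeptide, prepared from a water stock at […] and diluted 1:1 into 100 mM buffers spanning pH 3.0 to 8.0, stood 18 hours at room temperature. Polypeptide concentration was then determined by UPLC following centrifugation.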

[3] = target: T2, rat calcitonin receptor (Rattus norvegicus, UniProt P32214); test: ASSAY (VIII) binding to the rat calcitonin receptor; conditions: Table 7, read-out: rCTR bind IC50
T2 construct: expressed in transfected cells; host or cells: BHK tk'ts 13 (transient, FuGENE 6), membranes
T2 sequence (P32214 25-479 isoform P32214-2 limits assumed): T1 sequence (P32214 25-479 isoform P32214-2 limits assumed)
In short: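 Cell membranes for binding came from BHK tk′ts 13 cells harvested approximately 48 hours after transient transfection with the rat receptor.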

[4] = target: T3, human amylin 3(a) receptor (human calcitonin receptor + RAMP-3) in BHK570 cells (Homo sapiens, UniProt O60896+P30988); test: ASSAY (II)a functional assay, human amylin receptor (CRE luciferase); format: cell-based; conditions: for EC50: human amylin receptor functional potency, assay (II), read-out: hAmylin-R funct. EC50
T3 construct: expressed in transfected cells
In short: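 Receptor activation is measured as cAMP-driven CRE-luciferase expression in BHK cells expressing the calcitonin receptor, with RAMP-3 co-expressed to form the amylin 3(a) receptor. Cells are exposed to compound for 3 hours at 37° C, and luciferase is then quantified by luminescence.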

[5] = Table 7, rat binding selectivity, rCTR IC50 / rAmylin-R IC50
[6] = Table 7a (preferred compounds), rat binding selectivity, rCTR IC50 / rAmylin-R IC50
[7] = ratio of rCTR bind IC50 to rAmylin-R bind IC50
[8] = bistrispropane buffer, pH 6.5, read-out: Solubility pH 6.5 Concentration
[9] = bistrispropane buffer, pH 7.5, read-out: Solubility pH 7.5 Concentration
[10] = bistrispropane buffer, pH 6.0, read-out: Solubility pH 6.0 Concentration
[11] = bistrispropane buffer, pH 7.0, read-out: Solubility pH 7.0 Concentration
[12] = bistrispropane buffer, pH 8.0, read-out: Solubility pH 8.0 Concentration
[13] = glycylglycine buffer, pH 3.0, read-out: Solubility pH 3.0 Concentration
[14] = glycylglycine buffer, pH 4.0, read-out: Solubility pH 4.0 Concentration
[15] = glycylglycine buffer, pH 5.0, read-out: Solubility pH 5.0 Concentration
[16] = hCTR funct. EC50 divided by hAmylin-R funct. EC50
[17] = human functional selectivity: hCTR funct. EC50 / hAmylin-R funct. EC50

T3 sequence (O60896 24-148): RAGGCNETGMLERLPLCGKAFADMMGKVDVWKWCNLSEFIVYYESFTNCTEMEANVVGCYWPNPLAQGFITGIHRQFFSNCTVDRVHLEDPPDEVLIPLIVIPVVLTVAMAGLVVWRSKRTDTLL
T3 sequence (P30988 25-474): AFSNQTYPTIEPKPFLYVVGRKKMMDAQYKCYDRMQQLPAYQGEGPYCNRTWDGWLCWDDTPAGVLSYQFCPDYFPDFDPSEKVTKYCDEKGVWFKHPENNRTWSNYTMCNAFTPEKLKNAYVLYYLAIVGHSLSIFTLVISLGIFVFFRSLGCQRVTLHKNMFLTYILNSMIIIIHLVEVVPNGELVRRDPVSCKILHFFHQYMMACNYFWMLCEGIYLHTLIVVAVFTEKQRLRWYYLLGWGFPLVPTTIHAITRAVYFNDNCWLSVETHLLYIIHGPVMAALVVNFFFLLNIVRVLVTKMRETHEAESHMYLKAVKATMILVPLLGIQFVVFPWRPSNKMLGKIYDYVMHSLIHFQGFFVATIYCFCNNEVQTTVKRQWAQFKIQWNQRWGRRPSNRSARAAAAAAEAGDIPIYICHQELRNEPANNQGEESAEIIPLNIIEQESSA

Row | Ratio hCT/hAmylin funct. ([4]; hCTR funct. EC50 over hAmylin-R funct. EC50) | SMILES | IC50 ([1]; Table 7) | Ratio rCT/rAmylin binding [1, 5] | Ratio rCT/rAmylin binding [1, 6] | Ratio rCT/rAmylin binding [1, 7] | solubility at 18 h [2, 8] | solubility at 18 h [2, 9] | solubility at 18 h [2, 10] | solubility at 18 h [2, 11] | solubility at 18 h [2, 12] | solubility at 18 h [2, 13] | solubility at 18 h [2, 14] | solubility at 18 h [2, 15] | IC50 [3] | Ratio hCT/hAmylin funct. [4, 16] | EC50 [4] | Ratio hCT/hAmylin funct. [4, 17]
1 | 10.8 | CC[C@H](C)[C@H](NC(=O)[C@H](C)NC(=O)CNC(=O)[C@H](Cc1ccccc1)NC(=O)[C@H](CC(N)=O)NC(=O)[C@@H]1CCCN1C(=O)[C@H](CO)NC(=O)[C@H](CO)NC(=O)[C@H](Cc1c[nH]cn1)NC(=O)[C@H](CCCNC(=N)N)NC(=O)[C@H](CC(C)C)NC(=O)[C@H](Cc1ccccc1)NC(=O)[C@H](CC(N)=O)NC(=O)[C@H](C)NC(=O)[C@H](CC(C)C)NC(=O)[C@H](CCCNC(=N)N)NC(=O)[C@H](CCC(N)=O)NC(=O)[C@@H](NC(=O)[C@H](C)NC(=O)[C@@H]1CSSC[C@H](NC(=O)[C@@H](N)CCCCNC(=O)COCCOCCNC(=O)CC[C@H](NC(=O)CCCCCCCCCCCCCCCCCCC(=O)O)C(=O)O)C(=O)N[C@@H](CC(N)=O)C(=O)N[C@@H]([C@@H](C)O)C(=O)N[C@@H](C)C(=O)N[C@@H]([C@@H](C)O)C(=O)N1)[C@@H](C)O)C(=O)N1CCC[C@H]1C(=O)N1CCC[C@H]1C(=O)N[C@@H](CO)C(=O)N[C@H](C(=O)N[C@@H](CC(N)=O)C(=O)N[C@H](C(=O)NCC(=O)N1CCC[C@H]1C(=O)N[C@@H](CC(N)=O)C(=O)N[C@H](C(=O)N[C@@H](Cc1ccc(O)cc1)C(N)=O)[C@@H](C)O)C(C)C)[C@@H](C)O [Example 55] (H-K([AEEA-γGlu-C20 diacid])CNTATCATQRLANFLRHSSPNFGAIPPSTNVGPNTY-NH2; disulfide 2-7; N-terminus assumed) | 0.081 nM | 77.2 | 77.2 | 77.2 | ≥ 200 µM | ≥ 200 µM | ≥ 200 µM | ≥ 200 µM | 119 µM (≈ 541 µg/mL) | ≥ 200 µM | ≥ 200 µM | ≥ 200 µM | 6.25 nM | 10.8 | 0.068 nM | 10.8
2 | – | CC[C@H](C)[C@H](NC(=O)[C@H](C)NC(=O)CNC(=O)[C@H](Cc1ccccc1)NC(=O)[C@H](CC(N)=O)NC(=O)[C@@H]1CCCN1C(=O)[C@H](CO)NC(=O)[C@H](CO)NC(=O)[C@H](Cc1c[nH]cn1)NC(=O)[C@H](CCCNC(=N)N)NC(=O)[C@H](CC(C)C)NC(=O)[C@H](Cc1ccccc1)NC(=O)[C@H](CC(N)=O)NC(=O)[C@H](C)NC(=O)[C@H](CC(C)C)NC(=O)[C@H](CCCNC(=N)N)NC(=O)[C@H](CCC(N)=O)NC(=O)[C@@H](NC(=O)[C@H](C)NC(=O)[C@@H]1CSSC[C@H](NC(=O)[C@@H](N)CCCCNC(=O)COCCOCCNC(=O)CC[C@H](NC(=O)CCCCCCCCCCCCCCCCCCC(=O)O)C(=O)O)C(=O)N[C@@H](CC(N)=O)C(=O)N[C@@H]([C@@H](C)O)C(=O)N[C@@H](C)C(=O)N[C@@H]([C@@H](C)O)C(=O)N1)[C@@H](C)O)C(=O)N1CCC[C@H]1C(=O)N[C@@H](CO)C(=O)N1CCC[C@H]1C(=O)N[C@H](C(=O)N1CCC[C@H]1C(=O)N[C@H](C(=O)NCC(=O)N[C@@H](CO)C(=O)N[C@@H](CC(N)=O)C(=O)N[C@H](C(=O)N[C@@H](Cc1ccc(O)cc1)C(N)=O)[C@@H](C)O)C(C)C)[C@@H](C)O [Example 54] (H-K([AEEA-γGlu-C20 diacid])CNTATCATQRLANFLRHSSPNFGAIPSPTPVGSNTY-NH2; disulfide 2-7; N-terminus assumed) | 0.049 nM | 179.4 | 179.4 | 179.4 | ≥ 200 µM | ≥ 200 µM | ≥ 200 µM | ≥ 200 µM | ≥ 200 µM | ≥ 200 µM | ≥ 200 µM | ≥ 200 µM | 8.79 nM | 9.6 | 0.103 nM | 9.6

— patent publication US9023789B2, “Amylin analogs and pharmaceutical compositions thereof” (Novo Nordisk A/S, priority 2012, dated 2015)
